Assay results reported in ChEMBL document CHEMBL1201862, “PubChem BioAssay data set” (2004).
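96-well plates; 48 h exposure; 5 concentrations. Endpoints by linear interpolation between flanking doses. Not reached: highest tested concentration assigned. GI50 is the concentration that inhibits growth by half.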 Active and inactive are the calls of the source. Rule as the data show it: active = GI50 up to about 1.1 µM and inactive = higher.

Legend:
Assay in all cases: NCI-60 cell line screen, 48 h
CCRF-CEM = system: CCRF-CEM
KM-20L2 = system: KM-20L2
SK-OV-3 = system: SK-OV-3
DLD-1 = system: DLD-1
RXF 631 = system: RXF 631
SK-MEL-5 = system: SK-MEL-5
OVCAR-5 = system: OVCAR-5
COLO 205 = system: COLO 205
SNB-19 = system: SNB-19
SW-620 = system: SW-620
HCT-116 = system: HCT-116
KM12 = system: KM12
HL-60 = system: HL-60
HCT-15 = system: HCT-15
MOLT-4 = system: MOLT-4
Malme-3M = system: Malme-3M
HOP-62 = system: HOP-62
K562 = system: K562
NCI-H460 = system: NCI-H460
OVCAR-8 = system: OVCAR-8
IGROV-1 = system: IGROV-1
CAKI-1 = system: CAKI-1
A498 = system: A498
M19-MEL = system: M19-MEL
A549 = system: A549
SNB-75 = system: SNB-75
XF498 = system: XF498
NCI-H226 = system: NCI-H226
SF-268 = system: SF-268
SK-MEL-2 = system: SK-MEL-2
LOX IMVI = system: LOX IMVI
SF-295 = system: SF-295
HT-29 = system: HT-29
HCC 2998 = system: HCC 2998
HOP-92 = system: HOP-92
DMS-273 = system: DMS-273
M14 = system: M14
786-0 = system: 786-0
UO-31 = system: UO-31
OVCAR-4 = system: OVCAR-4
NCI-H522 = system: NCI-H522
OVCAR-3 = system: OVCAR-3
ACHN = system: ACHN
DMS-114 = system: DMS-114
LXFL 529 = system: LXFL 529
SN12C = system: SN12C
UACC-62 = system: UACC-62
UACC-257 = system: UACC-257
EKVX = system: EKVX
SK-MEL-28 = system: SK-MEL-28
RPMI-8226 = system: RPMI-8226
SF-539 = system: SF-539
SR = system: SR
RXF 393 = system: RXF 393
TK-10 = system: TK-10
SNB-78 = system: SNB-78
NCI-H23 = system: NCI-H23
U-251 = system: U-251
HOP-18 = system: HOP-18

CC12O[C@H](c3ccccc3)[C@H](c3ccccc3)N1C(=O)C1(C(=O)OCc3ccccc3)CC12 (some centres undefined)
GI50 (CCRF-CEM): 28.6 µM (inactive)
GI50 (KM-20L2): 25.1 µM (inactive)
GI50 (SK-OV-3): > 100 µM (inactive)
GI50 (DLD-1): 88.1 µM (inactive)
GI50 (RXF 631): > 100 µM (inactive)
GI50 (SK-MEL-5): 88.7 µM (inactive)
GI50 (OVCAR-5): > 100 µM (inactive)
GI50 (COLO 205): 89.9 µM (inactive)
GI50 (SNB-19): > 100 µM (inactive)
GI50 (SW-620): > 100 µM (inactive)
GI50 (HCT-116): 98.2 µM (inactive)
GI50 (KM12): 91 µM (inactive)
GI50 (HL-60): 32.4 µM (inactive)
GI50 (HCT-15): 86.5 µM
GI50 (MOLT-4): 18.2 µM (inactive)
GI50 (Malme-3M): > 100 µM (inactive)
GI50 (HOP-62): > 100 µM (inactive)
GI50 (K562): 37.3 µM (inactive)
GI50 (NCI-H460): > 100 µM (inactive)
GI50 (OVCAR-8): 92.3 µM (inactive)
GI50 (IGROV-1): > 100 µM (inactive)
GI50 (CAKI-1): > 100 µM (inactive)
GI50 (A498): > 100 µM (inactive)
GI50 (M19-MEL): > 100 µM (inactive)
GI50 (A549): 22.3 µM (inactive)
GI50 (SNB-75): > 100 µM (inactive)
GI50 (XF498): 78.9 µM (inactive)
GI50 (NCI-H226): 36 µM (inactive)
GI50 (SF-268): > 100 µM (inactive)
GI50 (SK-MEL-2): 33.3 µM (inactive)
GI50 (LOX IMVI): > 100 µM (inactive)
GI50 (SF-295): > 100 µM (inactive)
GI50 (HT-29): 76 µM (inactive)
GI50 (HCC 2998): > 100 µM (inactive)
GI50 (HOP-92): 23.5 µM (inactive)
GI50 (DMS-273): 80 µM (inactive)
GI50 (M14): 64.7 µM (inactive)
GI50 (786-0): > 100 µM (inactive)
GI50 (UO-31): 41.2 µM (inactive)
GI50 (OVCAR-4): 79.1 µM (inactive)
GI50 (NCI-H522): 39.1 µM (inactive)
GI50 (OVCAR-3): > 100 µM (inactive)
GI50 (ACHN): 60.3 µM (inactive)
GI50 (DMS-114): 39.6 µM (inactive)
GI50 (LXFL 529): 26.6 µM (inactive)
GI50 (SN12C): > 100 µM (inactive)
GI50 (UACC-62): > 100 µM (inactive)
GI50 (UACC-257): 59.8 µM (inactive)

Cc1ccc(C)c(NC(=O)C(=O)C(C(=O)c2ccc3ccccc3c2)C2OC(=O)c3ccccc32)c1 (centres undefined)
GI50 (CCRF-CEM): 10.9 µM (inactive)
GI50 (EKVX): 16.5 µM (inactive)
GI50 (KM-20L2): 21.3 µM (inactive)
GI50 (SK-OV-3): 14.3 µM (inactive)
GI50 (DLD-1): 23 µM (inactive)
GI50 (RXF 631): 16.1 µM (inactive)
GI50 (SK-MEL-5): 17.2 µM (inactive)
GI50 (SK-MEL-28): 12.4 µM (inactive)
GI50 (OVCAR-5): 14.9 µM (inactive)
GI50 (COLO 205): 15.8 µM (inactive)
GI50 (RPMI-8226): 22.2 µM (inactive)
GI50 (SNB-19): 8 µM (inactive)
GI50 (SW-620): 11.2 µM (inactive)
GI50 (HCT-116): 12.3 µM (inactive)
GI50 (SF-539): 4.75 µM (inactive)
GI50 (KM12): 14.2 µM (inactive)
GI50 (HL-60): 17.1 µM (inactive)
GI50 (HCT-15): 21.5 µM
GI50 (MOLT-4): 5.25 µM (inactive)
GI50 (HOP-62): 20.2 µM (inactive)
GI50 (K562): 25.7 µM (inactive)
GI50 (NCI-H460): 11.6 µM (inactive)
GI50 (SR): 4.45 µM (inactive)
GI50 (OVCAR-8): 7.82 µM (inactive)
GI50 (IGROV-1): 18.2 µM (inactive)
GI50 (CAKI-1): 20 µM (inactive)
GI50 (A498): 16.8 µM (inactive)
GI50 (RXF 393): 2.97 µM (inactive)
GI50 (M19-MEL): 12.7 µM (inactive)
GI50 (TK-10): 19.2 µM (inactive)
GI50 (A549): 18.2 µM (inactive)
GI50 (SNB-75): 12.4 µM (inactive)
GI50 (XF498): 14.5 µM (inactive)
GI50 (SNB-78): 17.9 µM (inactive)
GI50 (NCI-H226): 2.44 µM (inactive)
GI50 (NCI-H23): 15.6 µM (inactive)
GI50 (SF-268): 3.57 µM (inactive)
GI50 (SK-MEL-2): 13.6 µM (inactive)
GI50 (LOX IMVI): 13.6 µM (inactive)
GI50 (SF-295): 10.4 µM (inactive)
GI50 (HT-29): 28.1 µM (inactive)
GI50 (HCC 2998): 15 µM (inactive)
GI50 (HOP-92): 26.1 µM (inactive)
GI50 (DMS-273): 3.87 µM (inactive)
GI50 (M14): 14.6 µM (inactive)
GI50 (UO-31): 16.5 µM (inactive)
GI50 (OVCAR-4): 21.9 µM (inactive)
GI50 (NCI-H522): 10 µM (inactive)
GI50 (ACHN): 26.5 µM (inactive)
GI50 (DMS-114): 7.21 µM (inactive)
GI50 (LXFL 529): 7.59 µM (inactive)
GI50 (SN12C): 15.7 µM (inactive)
GI50 (UACC-62): 14.6 µM (inactive)
GI50 (U-251): 4.19 µM (inactive)
GI50 (UACC-257): 15.5 µM (inactive)

C/C(Cc1ccccc1)=N\NC(N)=S
GI50 (CCRF-CEM): > 100 µM (inactive)
GI50 (KM-20L2): > 100 µM (inactive)
GI50 (SK-OV-3): > 100 µM (inactive)
GI50 (RXF 631): > 100 µM (inactive)
GI50 (HOP-18): > 100 µM (inactive)
GI50 (SK-MEL-28): > 100 µM (inactive)
GI50 (COLO 205): > 100 µM (inactive)
GI50 (RPMI-8226): 92.9 µM (inactive)
GI50 (SNB-19): > 100 µM (inactive)
GI50 (SF-539): > 100 µM (inactive)
GI50 (HL-60): > 100 µM (inactive)
GI50 (HCT-15): > 100 µM
GI50 (MOLT-4): > 100 µM (inactive)
GI50 (K562): > 100 µM (inactive)
GI50 (NCI-H460): > 100 µM (inactive)
GI50 (IGROV-1): > 100 µM (inactive)
GI50 (A498): > 100 µM (inactive)
GI50 (RXF 393): 70.1 µM (inactive)
GI50 (M19-MEL): > 100 µM (inactive)
GI50 (SNB-75): > 100 µM (inactive)
GI50 (XF498): > 100 µM (inactive)
GI50 (SNB-78): > 100 µM (inactive)
GI50 (NCI-H23): > 100 µM (inactive)
GI50 (LOX IMVI): > 100 µM (inactive)
GI50 (HOP-92): 67.1 µM (inactive)
GI50 (DMS-273): > 100 µM (inactive)
GI50 (M14): > 100 µM (inactive)
GI50 (OVCAR-4): > 100 µM (inactive)
GI50 (ACHN): > 100 µM (inactive)
GI50 (DMS-114): 76 µM (inactive)
GI50 (LXFL 529): > 100 µM (inactive)
GI50 (SN12C): > 100 µM (inactive)
GI50 (UACC-62): > 100 µM (inactive)
GI50 (U-251): > 100 µM (inactive)

O=C(C[n+]1ccccc1)N/N=C(/CCC(=O)N(Cc1ccccc1)Cc1ccccc1)CC(=O)c1ccccc1
GI50 (CCRF-CEM): > 100 µM (inactive)
GI50 (EKVX): > 100 µM (inactive)
GI50 (KM-20L2): > 100 µM (inactive)
GI50 (DLD-1): > 100 µM (inactive)
GI50 (RXF 631): > 100 µM (inactive)
GI50 (SK-MEL-5): > 100 µM (inactive)
GI50 (HOP-18): > 100 µM (inactive)
GI50 (SK-MEL-28): > 100 µM (inactive)
GI50 (OVCAR-5): > 100 µM (inactive)
GI50 (COLO 205): > 100 µM (inactive)
GI50 (RPMI-8226): > 100 µM (inactive)
GI50 (SNB-19): > 100 µM (inactive)
GI50 (SW-620): > 100 µM (inactive)
GI50 (HCT-116): > 100 µM (inactive)
GI50 (SF-539): > 100 µM (inactive)
GI50 (KM12): > 100 µM (inactive)
GI50 (HL-60): > 100 µM (inactive)
GI50 (HCT-15): > 100 µM
GI50 (MOLT-4): > 100 µM (inactive)
GI50 (Malme-3M): > 100 µM (inactive)
GI50 (HOP-62): > 100 µM (inactive)
GI50 (K562): > 100 µM (inactive)
GI50 (NCI-H460): > 100 µM (inactive)
GI50 (SR): > 100 µM (inactive)
GI50 (OVCAR-8): > 100 µM (inactive)
GI50 (IGROV-1): > 100 µM (inactive)
GI50 (CAKI-1): > 100 µM (inactive)
GI50 (A498): > 100 µM (inactive)
GI50 (RXF 393): > 100 µM (inactive)
GI50 (M19-MEL): > 100 µM (inactive)
GI50 (TK-10): > 100 µM (inactive)
GI50 (A549): > 100 µM (inactive)
GI50 (SNB-75): > 100 µM (inactive)
GI50 (SNB-78): > 100 µM (inactive)
GI50 (NCI-H226): > 100 µM (inactive)
GI50 (NCI-H23): > 100 µM (inactive)
GI50 (SF-268): > 100 µM (inactive)
GI50 (SK-MEL-2): > 100 µM (inactive)
GI50 (LOX IMVI): > 100 µM (inactive)
GI50 (SF-295): > 100 µM (inactive)
GI50 (HT-29): > 100 µM (inactive)
GI50 (HCC 2998): > 100 µM (inactive)
GI50 (HOP-92): > 100 µM (inactive)
GI50 (DMS-273): > 100 µM (inactive)
GI50 (M14): > 100 µM (inactive)
GI50 (786-0): > 100 µM (inactive)
GI50 (UO-31): > 100 µM (inactive)
GI50 (OVCAR-4): > 100 µM (inactive)
GI50 (NCI-H522): > 100 µM (inactive)
GI50 (OVCAR-3): > 100 µM (inactive)
GI50 (ACHN): > 100 µM (inactive)
GI50 (DMS-114): > 100 µM (inactive)
GI50 (LXFL 529): > 100 µM (inactive)
GI50 (SN12C): > 100 µM (inactive)
GI50 (UACC-62): > 100 µM (inactive)
GI50 (U-251): > 100 µM (inactive)
GI50 (UACC-257): > 100 µM (inactive)
